Values belong to the compound of their own block, whether it stands above or below them.
Legend:
Assay in all cases: radiometric filter-binding kinase assay
[1] = test system: AKT2 (human), P31751 [S474D]
BRSK2 (human) = BRSK2 (human) (UniProt Q8IWQ3)
CAMKK2 (human) = CAMKK2 (human) (UniProt Q96RR4)
CLK2 (human) = CLK2 (human) (UniProt P49760)
CSK (human) = CSK (human) (UniProt P41240)
DAPK1 (human) = DAPK1 (human) (UniProt P53355)
EPHA4 (human) = EPHA4 (human) (UniProt P54764)
EPHB1 (human) = EPHB1 (human) (UniProt P54762)
EPHB3 (human) = EPHB3 (human) (UniProt P54753)
EPHB4 (human) = EPHB4 (human) (UniProt P54760)
GSK3B (human) = GSK3B (human) (UniProt P49841)
HIPK1 (human) = HIPK1 (human) (UniProt Q86Z02)
HIPK2 (human) = HIPK2 (human) (UniProt Q9H2X6)
HIPK3 (human) = HIPK3 (human) (UniProt Q9H422)
IGF1R (human) = IGF1R (human) (UniProt P08069)
INSR (human) = INSR (human) (UniProt P06213)
LCK (mouse) = conditions: accession and sequence are those of the human protein
MAP3K1 (human) = MAP3K1 (human) (UniProt Q13233)
MAP3K5 (human) = MAP3K5 (human) (UniProt Q99683)
MAP3K7 TAB1 (human) = MAP3K7 TAB1 (human) (UniProt Q15750+O43318)
MAP3K9 (human) = MAP3K9 (human) (UniProt P80192)
MAPK1 (human) = MAPK1 (human) (UniProt P28482)
MAPK11 (human) = MAPK11 (human) (UniProt Q15759)
MAPK13 (human) = MAPK13 (human) (UniProt O15264)
MARK4 (human) = MARK4 (human) (UniProt Q96L34)
PAK6 (human) = PAK6 (human) (UniProt Q9NQU5)
PAK7 (human) = PAK7 (human) (UniProt Q9P286)
PKN2 (human) = PKN2 (human) (UniProt Q16513)
PLK1 (human) = PLK1 (human) (UniProt P53350)
PRKAA1 or PRKAA2 (rat) = conditions: accession and sequence are those of the human protein
PRKCZ (human) = PRKCZ (human) (UniProt Q05513)
ROCK2 (rat) = conditions: accession and sequence are those of the human protein
RPS6KA5 KD1 KD2 (human) = RPS6KA5 KD1 KD2 (human) (UniProt O75582)
SRC (human) = SRC (human) (UniProt P12931)
SYK (human) = SYK (human) (UniProt P43405)
YES1 (human) = YES1 (human) (UniProt P07947)
YES1 (human), sequence (P07947 whole entry, looked up): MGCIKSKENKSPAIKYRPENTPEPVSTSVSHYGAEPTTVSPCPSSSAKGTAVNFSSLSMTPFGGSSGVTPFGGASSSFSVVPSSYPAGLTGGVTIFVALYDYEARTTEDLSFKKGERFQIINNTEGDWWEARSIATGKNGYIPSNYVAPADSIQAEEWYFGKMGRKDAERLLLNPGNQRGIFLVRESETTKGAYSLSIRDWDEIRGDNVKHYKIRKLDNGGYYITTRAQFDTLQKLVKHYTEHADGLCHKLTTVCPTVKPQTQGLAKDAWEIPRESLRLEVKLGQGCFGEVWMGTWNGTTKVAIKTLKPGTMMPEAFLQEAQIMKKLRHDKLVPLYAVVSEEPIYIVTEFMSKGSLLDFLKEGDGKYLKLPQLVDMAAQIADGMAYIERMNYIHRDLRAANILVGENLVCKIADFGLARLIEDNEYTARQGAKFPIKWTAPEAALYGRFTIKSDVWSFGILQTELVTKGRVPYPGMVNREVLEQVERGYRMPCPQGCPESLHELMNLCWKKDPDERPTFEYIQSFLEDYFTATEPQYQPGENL

DAPK1 (human), sequence (P53355 whole entry, looked up): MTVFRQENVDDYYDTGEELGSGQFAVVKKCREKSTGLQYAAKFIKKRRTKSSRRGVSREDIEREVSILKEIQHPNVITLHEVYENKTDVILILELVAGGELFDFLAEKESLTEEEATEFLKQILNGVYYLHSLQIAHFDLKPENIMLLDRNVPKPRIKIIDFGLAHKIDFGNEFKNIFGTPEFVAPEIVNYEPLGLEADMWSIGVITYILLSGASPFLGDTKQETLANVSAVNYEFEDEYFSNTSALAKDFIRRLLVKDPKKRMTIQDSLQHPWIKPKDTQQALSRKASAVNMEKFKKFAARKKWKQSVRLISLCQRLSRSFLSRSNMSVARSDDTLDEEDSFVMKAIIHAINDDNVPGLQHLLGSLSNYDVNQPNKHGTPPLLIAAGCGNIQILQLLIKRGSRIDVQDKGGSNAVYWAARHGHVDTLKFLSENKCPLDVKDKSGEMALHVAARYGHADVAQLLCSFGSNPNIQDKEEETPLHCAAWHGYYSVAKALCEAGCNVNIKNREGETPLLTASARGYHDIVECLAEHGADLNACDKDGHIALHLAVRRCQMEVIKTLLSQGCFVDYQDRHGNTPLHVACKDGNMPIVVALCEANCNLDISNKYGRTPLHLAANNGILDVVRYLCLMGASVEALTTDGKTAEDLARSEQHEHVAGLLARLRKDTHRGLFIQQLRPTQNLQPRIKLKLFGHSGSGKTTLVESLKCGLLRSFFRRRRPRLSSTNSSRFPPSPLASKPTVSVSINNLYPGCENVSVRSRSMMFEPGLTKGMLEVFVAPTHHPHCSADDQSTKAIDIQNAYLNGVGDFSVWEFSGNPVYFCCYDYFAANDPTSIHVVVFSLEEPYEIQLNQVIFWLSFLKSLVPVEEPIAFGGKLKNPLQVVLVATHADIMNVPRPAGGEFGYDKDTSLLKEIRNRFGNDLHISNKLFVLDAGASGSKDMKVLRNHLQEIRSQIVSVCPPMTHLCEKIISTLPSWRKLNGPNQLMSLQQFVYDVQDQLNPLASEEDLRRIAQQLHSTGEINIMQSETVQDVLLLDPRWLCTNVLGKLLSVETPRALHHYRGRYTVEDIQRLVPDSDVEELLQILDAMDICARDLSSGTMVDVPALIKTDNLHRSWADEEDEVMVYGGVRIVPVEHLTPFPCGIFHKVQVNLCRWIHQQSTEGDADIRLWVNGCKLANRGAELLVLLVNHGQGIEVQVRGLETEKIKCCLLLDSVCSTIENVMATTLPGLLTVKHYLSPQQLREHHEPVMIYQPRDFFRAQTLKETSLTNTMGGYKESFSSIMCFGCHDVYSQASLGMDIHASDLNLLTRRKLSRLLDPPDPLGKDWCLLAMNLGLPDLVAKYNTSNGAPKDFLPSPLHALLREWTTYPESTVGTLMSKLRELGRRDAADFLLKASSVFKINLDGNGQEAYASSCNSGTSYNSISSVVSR
EPHB4 (human), sequence (P54760 whole entry, looked up): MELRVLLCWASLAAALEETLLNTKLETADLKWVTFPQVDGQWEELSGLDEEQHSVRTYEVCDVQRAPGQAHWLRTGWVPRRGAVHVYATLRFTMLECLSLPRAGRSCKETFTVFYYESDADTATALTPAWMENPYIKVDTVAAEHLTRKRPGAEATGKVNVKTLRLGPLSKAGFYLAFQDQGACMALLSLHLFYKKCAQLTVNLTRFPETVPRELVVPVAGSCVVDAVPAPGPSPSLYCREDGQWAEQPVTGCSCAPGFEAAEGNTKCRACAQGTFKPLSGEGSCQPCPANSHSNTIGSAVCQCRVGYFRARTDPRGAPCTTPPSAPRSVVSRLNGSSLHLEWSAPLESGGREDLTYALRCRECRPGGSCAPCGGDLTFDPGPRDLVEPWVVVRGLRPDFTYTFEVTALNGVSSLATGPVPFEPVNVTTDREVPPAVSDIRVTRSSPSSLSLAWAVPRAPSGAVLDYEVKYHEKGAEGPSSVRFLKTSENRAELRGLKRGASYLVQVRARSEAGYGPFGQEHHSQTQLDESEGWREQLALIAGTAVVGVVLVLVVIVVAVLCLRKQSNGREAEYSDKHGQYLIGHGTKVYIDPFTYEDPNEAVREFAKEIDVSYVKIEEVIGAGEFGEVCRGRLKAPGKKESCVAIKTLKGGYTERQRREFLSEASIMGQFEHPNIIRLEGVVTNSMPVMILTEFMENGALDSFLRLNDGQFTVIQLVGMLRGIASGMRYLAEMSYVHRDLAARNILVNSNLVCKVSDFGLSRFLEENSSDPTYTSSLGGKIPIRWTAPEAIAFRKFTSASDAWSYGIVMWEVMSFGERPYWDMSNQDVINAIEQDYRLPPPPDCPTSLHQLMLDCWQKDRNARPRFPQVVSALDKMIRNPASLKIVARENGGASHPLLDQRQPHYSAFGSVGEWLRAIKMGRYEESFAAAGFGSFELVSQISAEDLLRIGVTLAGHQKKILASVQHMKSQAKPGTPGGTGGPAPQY
PLK1 (human), sequence (P53350 whole entry, looked up): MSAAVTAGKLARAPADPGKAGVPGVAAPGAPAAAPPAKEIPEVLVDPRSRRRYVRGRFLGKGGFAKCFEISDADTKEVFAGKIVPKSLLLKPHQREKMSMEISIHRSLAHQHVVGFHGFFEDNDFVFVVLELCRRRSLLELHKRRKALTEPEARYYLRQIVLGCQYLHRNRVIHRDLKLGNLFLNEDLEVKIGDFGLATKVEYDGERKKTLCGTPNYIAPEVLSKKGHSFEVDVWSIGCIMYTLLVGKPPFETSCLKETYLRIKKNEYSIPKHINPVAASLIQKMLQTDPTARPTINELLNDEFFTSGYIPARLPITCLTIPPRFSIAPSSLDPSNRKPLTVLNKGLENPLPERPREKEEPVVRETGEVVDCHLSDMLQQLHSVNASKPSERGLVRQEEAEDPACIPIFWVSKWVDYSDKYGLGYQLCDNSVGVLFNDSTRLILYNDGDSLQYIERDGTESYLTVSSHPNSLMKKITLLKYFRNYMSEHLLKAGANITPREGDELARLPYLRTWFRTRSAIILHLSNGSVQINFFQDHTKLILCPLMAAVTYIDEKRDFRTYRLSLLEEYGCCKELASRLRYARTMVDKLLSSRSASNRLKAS
CAMKK2 (human), sequence (Q96RR4 whole entry, looked up): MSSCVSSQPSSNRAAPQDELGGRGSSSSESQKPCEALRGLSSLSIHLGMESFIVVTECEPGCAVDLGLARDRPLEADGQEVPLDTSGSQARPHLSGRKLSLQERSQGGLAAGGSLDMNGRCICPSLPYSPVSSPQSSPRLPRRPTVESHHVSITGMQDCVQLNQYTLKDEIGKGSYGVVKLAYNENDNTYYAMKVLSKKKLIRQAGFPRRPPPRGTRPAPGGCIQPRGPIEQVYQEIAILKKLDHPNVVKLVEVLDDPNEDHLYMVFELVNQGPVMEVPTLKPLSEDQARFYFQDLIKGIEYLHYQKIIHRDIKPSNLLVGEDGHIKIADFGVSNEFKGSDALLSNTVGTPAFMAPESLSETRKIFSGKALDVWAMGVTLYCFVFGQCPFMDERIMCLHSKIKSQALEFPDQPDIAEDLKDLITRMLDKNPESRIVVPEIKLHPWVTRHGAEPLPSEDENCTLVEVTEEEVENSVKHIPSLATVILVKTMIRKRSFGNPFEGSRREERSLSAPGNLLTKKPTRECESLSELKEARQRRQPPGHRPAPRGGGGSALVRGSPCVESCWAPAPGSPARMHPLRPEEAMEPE
RPS6KA5 KD1 KD2 (human), sequence (O75582 whole entry, looked up): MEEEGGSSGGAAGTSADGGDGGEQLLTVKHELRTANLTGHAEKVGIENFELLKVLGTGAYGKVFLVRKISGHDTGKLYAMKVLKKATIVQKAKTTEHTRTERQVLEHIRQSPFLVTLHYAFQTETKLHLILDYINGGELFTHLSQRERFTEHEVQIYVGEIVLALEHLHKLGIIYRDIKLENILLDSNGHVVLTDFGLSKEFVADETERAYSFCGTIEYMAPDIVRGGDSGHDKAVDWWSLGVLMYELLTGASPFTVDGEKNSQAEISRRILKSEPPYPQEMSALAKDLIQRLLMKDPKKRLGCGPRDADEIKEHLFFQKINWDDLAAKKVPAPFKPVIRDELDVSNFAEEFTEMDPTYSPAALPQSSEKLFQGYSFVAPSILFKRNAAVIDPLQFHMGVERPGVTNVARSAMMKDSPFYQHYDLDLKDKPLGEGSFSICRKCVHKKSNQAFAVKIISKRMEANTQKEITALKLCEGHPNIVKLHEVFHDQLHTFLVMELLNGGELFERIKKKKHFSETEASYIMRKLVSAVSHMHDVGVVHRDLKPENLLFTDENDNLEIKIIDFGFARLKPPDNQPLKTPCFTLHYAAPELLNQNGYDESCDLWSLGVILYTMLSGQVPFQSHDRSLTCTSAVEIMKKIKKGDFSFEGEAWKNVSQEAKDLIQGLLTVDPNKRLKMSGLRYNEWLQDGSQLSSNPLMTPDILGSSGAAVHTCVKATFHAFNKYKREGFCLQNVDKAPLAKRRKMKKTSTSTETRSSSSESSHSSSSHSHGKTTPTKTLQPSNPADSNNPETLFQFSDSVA

residual activity ([1]; compound 0.1 µM): 69%
residual activity ([1]; compound 1.0 µM): 86%
residual activity ([1]; compound 10.0 µM): 68%
residual activity (BRSK2 (human); compound 0.1 µM): 102%
residual activity (BRSK2 (human); compound 1.0 µM): 88%
residual activity (BRSK2 (human); compound 10.0 µM): 94%
residual activity (CAMKK2 (human); compound 0.1 µM): 92%
residual activity (CAMKK2 (human); compound 1.0 µM): 99%
residual activity (CAMKK2 (human); compound 10.0 µM): 84%
residual activity (CLK2 (human); compound 0.1 µM): 103%
residual activity (CLK2 (human); compound 1.0 µM): 81%
residual activity (CLK2 (human); compound 10.0 µM): 67%
residual activity (CSK (human); compound 0.1 µM): 92%
residual activity (CSK (human); compound 1.0 µM): 91%
residual activity (CSK (human); compound 10.0 µM): 85%
residual activity (DAPK1 (human); compound 0.1 µM): 85%
residual activity (DAPK1 (human); compound 1.0 µM): 90%
residual activity (DAPK1 (human); compound 10.0 µM): 48%
residual activity (EPHA4 (human); compound 0.1 µM): 107%
residual activity (EPHA4 (human); compound 1.0 µM): 116%
residual activity (EPHA4 (human); compound 10.0 µM): 97%
residual activity (EPHB1 (human); compound 0.1 µM): 96%
residual activity (EPHB1 (human); compound 1.0 µM): 109%
residual activity (EPHB1 (human); compound 10.0 µM): 100%
residual activity (EPHB3 (human); compound 0.1 µM): 112%
residual activity (EPHB3 (human); compound 1.0 µM): 99%
residual activity (EPHB3 (human); compound 10.0 µM): 105%
residual activity (EPHB4 (human); compound 0.1 µM): 101%
residual activity (EPHB4 (human); compound 1.0 µM): 105%
residual activity (EPHB4 (human); compound 10.0 µM): 86%
residual activity (GSK3B (human); compound 0.1 µM): 104%
residual activity (GSK3B (human); compound 1.0 µM): 85%
residual activity (GSK3B (human); compound 10.0 µM): 72%
residual activity (HIPK1 (human); compound 0.1 µM): 91%
residual activity (HIPK1 (human); compound 1.0 µM): 85%
residual activity (HIPK1 (human); compound 10.0 µM): 97%
residual activity (HIPK2 (human); compound 0.1 µM): 102%
residual activity (HIPK2 (human); compound 1.0 µM): 97%
residual activity (HIPK2 (human); compound 10.0 µM): 80%
residual activity (HIPK3 (human); compound 0.1 µM): 117%
residual activity (HIPK3 (human); compound 1.0 µM): 100%
residual activity (HIPK3 (human); compound 10.0 µM): 100%
residual activity (IGF1R (human); compound 0.1 µM): 116%
residual activity (IGF1R (human); compound 1.0 µM): 85%
residual activity (IGF1R (human); compound 10.0 µM): 55%
residual activity (INSR (human); compound 1.0 µM): 79%
residual activity (INSR (human); compound 10.0 µM): 83%
residual activity (LCK (mouse); compound 0.1 µM): 106%
residual activity (LCK (mouse); compound 1.0 µM): 112%
residual activity (LCK (mouse); compound 10.0 µM): 80%
residual activity (MAP3K1 (human); compound 0.1 µM): 114%
residual activity (MAP3K1 (human); compound 1.0 µM): 101%
residual activity (MAP3K1 (human); compound 10.0 µM): 83%
residual activity (MAP3K5 (human); compound 0.1 µM): 97%
residual activity (MAP3K5 (human); compound 1.0 µM): 87%
residual activity (MAP3K5 (human); compound 10.0 µM): 90%
residual activity (MAP3K7 TAB1 (human); compound 0.1 µM): 81%
residual activity (MAP3K7 TAB1 (human); compound 1.0 µM): 107%
residual activity (MAP3K7 TAB1 (human); compound 10.0 µM): 49%
residual activity (MAP3K9 (human); compound 0.1 µM): 110%
residual activity (MAP3K9 (human); compound 1.0 µM): 93%
residual activity (MAPK1 (human); compound 0.1 µM): 104%
residual activity (MAPK1 (human); compound 1.0 µM): 96%
residual activity (MAPK1 (human); compound 10.0 µM): 75%
residual activity (MAPK11 (human); compound 0.1 µM): 99%
residual activity (MAPK11 (human); compound 1.0 µM): 77%
residual activity (MAPK11 (human); compound 10.0 µM): 76%
residual activity (MAPK13 (human); compound 0.1 µM): 100%
residual activity (MAPK13 (human); compound 1.0 µM): 90%
residual activity (MAPK13 (human); compound 10.0 µM): 106%
residual activity (MARK4 (human); compound 0.1 µM): 98%
residual activity (MARK4 (human); compound 1.0 µM): 102%
residual activity (MARK4 (human); compound 10.0 µM): 92%
residual activity (PAK6 (human); compound 0.1 µM): 85%
residual activity (PAK6 (human); compound 1.0 µM): 100%
residual activity (PAK6 (human); compound 10.0 µM): 91%
residual activity (PAK7 (human); compound 0.1 µM): 101%
residual activity (PAK7 (human); compound 1.0 µM): 96%
residual activity (PAK7 (human); compound 10.0 µM): 75%
residual activity (PKN2 (human); compound 0.1 µM): 95%
residual activity (PKN2 (human); compound 1.0 µM): 96%
residual activity (PKN2 (human); compound 10.0 µM): 92%
residual activity (PLK1 (human); compound 1.0 µM): 105%
residual activity (PLK1 (human); compound 10.0 µM): 94%
residual activity (PRKAA1 or PRKAA2 (rat); compound 0.1 µM): 98%
residual activity (PRKAA1 or PRKAA2 (rat); compound 1.0 µM): 85%
residual activity (PRKAA1 or PRKAA2 (rat); compound 10.0 µM): 83%
residual activity (PRKCZ (human); compound 0.1 µM): 97%
residual activity (PRKCZ (human); compound 1.0 µM): 105%
residual activity (PRKCZ (human); compound 10.0 µM): 97%
residual activity (ROCK2 (rat); compound 0.1 µM): 85%
residual activity (ROCK2 (rat); compound 1.0 µM): 87%
residual activity (ROCK2 (rat); compound 10.0 µM): 91%
residual activity (RPS6KA5 KD1 KD2 (human); compound 0.1 µM): 84%
residual activity (RPS6KA5 KD1 KD2 (human); compound 1.0 µM): 90%
residual activity (RPS6KA5 KD1 KD2 (human); compound 10.0 µM): 76%
residual activity (SRC (human); compound 0.1 µM): 101%
residual activity (SRC (human); compound 1.0 µM): 89%
residual activity (SRC (human); compound 10.0 µM): 105%
residual activity (SYK (human); compound 0.1 µM): 116%
residual activity (SYK (human); compound 1.0 µM): 100%
residual activity (SYK (human); compound 10.0 µM): 96%
residual activity (YES1 (human); compound 0.1 µM): 102%
residual activity (YES1 (human); compound 1.0 µM): 99%
residual activity (YES1 (human); compound 10.0 µM): 68%
Structure (SMILES): NC1(c2ccc(-c3nc4ccn5c(=O)[nH]nc5c4cc3-c3ccccc3)cc2)CCC1

residual activity ([1]; compound 0.1 µM): 86%
residual activity ([1]; compound 1.0 µM): 84%
residual activity (BRSK2 (human); compound 0.1 µM): 84%
residual activity (BRSK2 (human); compound 1.0 µM): 88%
residual activity (CAMKK2 (human); compound 0.1 µM): 87%
residual activity (CAMKK2 (human); compound 1.0 µM): 57%
residual activity (CLK2 (human); compound 0.1 µM): 96%
residual activity (CLK2 (human); compound 1.0 µM): 90%
residual activity (CSK (human); compound 0.1 µM): 118%
residual activity (CSK (human); compound 1.0 µM): 56%
residual activity (DAPK1 (human); compound 0.1 µM): 108%
residual activity (DAPK1 (human); compound 1.0 µM): 94%
residual activity (EPHA4 (human); compound 0.1 µM): 91%
residual activity (EPHA4 (human); compound 1.0 µM): 46%
residual activity (EPHB1 (human); compound 0.1 µM): 99%
residual activity (EPHB1 (human); compound 1.0 µM): 81%
residual activity (EPHB3 (human); compound 0.1 µM): 111%
residual activity (EPHB3 (human); compound 1.0 µM): 100%
residual activity (EPHB4 (human); compound 0.1 µM): 87%
residual activity (EPHB4 (human); compound 1.0 µM): 90%
residual activity (GSK3B (human); compound 0.1 µM): 102%
residual activity (GSK3B (human); compound 1.0 µM): 74%
residual activity (HIPK1 (human); compound 0.1 µM): 102%
residual activity (HIPK1 (human); compound 1.0 µM): 98%
residual activity (HIPK2 (human); compound 0.1 µM): 98%
residual activity (HIPK2 (human); compound 1.0 µM): 82%
residual activity (HIPK3 (human); compound 0.1 µM): 90%
residual activity (HIPK3 (human); compound 1.0 µM): 103%
residual activity (IGF1R (human); compound 0.1 µM): 100%
residual activity (IGF1R (human); compound 1.0 µM): 93%
residual activity (INSR (human); compound 0.1 µM): 110%
residual activity (INSR (human); compound 1.0 µM): 94%
residual activity (LCK (mouse); compound 0.1 µM): 78%
residual activity (LCK (mouse); compound 1.0 µM): 30%
residual activity (MAP3K1 (human); compound 0.1 µM): 107%
residual activity (MAP3K1 (human); compound 1.0 µM): 92%
residual activity (MAP3K5 (human); compound 0.1 µM): 91%
residual activity (MAP3K5 (human); compound 1.0 µM): 95%
residual activity (MAP3K7 TAB1 (human); compound 0.1 µM): 5%
residual activity (MAP3K7 TAB1 (human); compound 1.0 µM): 3%
residual activity (MAP3K9 (human); compound 0.1 µM): 109%
residual activity (MAP3K9 (human); compound 1.0 µM): 75%
residual activity (MAPK1 (human); compound 0.1 µM): 103%
residual activity (MAPK1 (human); compound 1.0 µM): 65%
residual activity (MAPK11 (human); compound 0.1 µM): 90%
residual activity (MAPK11 (human); compound 1.0 µM): 72%
residual activity (MAPK13 (human); compound 0.1 µM): 99%
residual activity (MAPK13 (human); compound 1.0 µM): 114%
residual activity (MARK4 (human); compound 0.1 µM): 107%
residual activity (MARK4 (human); compound 1.0 µM): 86%
residual activity (PAK6 (human); compound 0.1 µM): 100%
residual activity (PAK6 (human); compound 1.0 µM): 87%
residual activity (PAK7 (human); compound 0.1 µM): 96%
residual activity (PAK7 (human); compound 1.0 µM): 103%
residual activity (PKN2 (human); compound 0.1 µM): 102%
residual activity (PKN2 (human); compound 1.0 µM): 91%
residual activity (PLK1 (human); compound 0.1 µM): 103%
residual activity (PLK1 (human); compound 1.0 µM): 100%
residual activity (PRKAA1 or PRKAA2 (rat); compound 0.1 µM): 100%
residual activity (PRKAA1 or PRKAA2 (rat); compound 1.0 µM): 92%
residual activity (PRKCZ (human); compound 0.1 µM): 105%
residual activity (PRKCZ (human); compound 1.0 µM): 99%
residual activity (ROCK2 (rat); compound 0.1 µM): 116%
residual activity (ROCK2 (rat); compound 1.0 µM): 83%
residual activity (RPS6KA5 KD1 KD2 (human); compound 1.0 µM): 100%
residual activity (SRC (human); compound 0.1 µM): 106%
residual activity (SRC (human); compound 1.0 µM): 43%
residual activity (SYK (human); compound 0.1 µM): 88%
residual activity (SYK (human); compound 1.0 µM): 77%
residual activity (YES1 (human); compound 1.0 µM): 60%
Structure (SMILES): COc1cc(O)c2c(c1)/C=C/C[C@H](O)[C@H](O)C(=O)/C=C\C[C@H](C)OC2=O
